In US9328112B2, “Tetracyclic CDK9 kinase inhibitors” (AbbVie Inc., priority 2014, dated 2016):

What was measured:
CDK9/Cyclin T1 = CDK9/Cyclin T1 (Homo sapiens (Human), UniProt P50750); test: CDK9 enzyme assay (LANCE ULight TR-FRET kinase assay); type: biochemical; conditions: 1000 μM ATP, 100 nM ULight MBP, kinase reaction 1 hour
Procedure: CDK9 enzyme activities were measured using LANCE ULight TR-FRET kinase assay reagents (PerkinElmer, Waltham, Mass.). Compounds were diluted in 100% DMSO then diluted with 1:10 in serine/threonine kinase assay buffer containing 20 mM HEPES, 10 mM MgCl2, […], and 0.0075% Triton X-100. Equal volume of the compound dilutions was added to a final reaction mixture containing LANCE detection buffer (PerkinElmer CR97-100), 100 nM ULight MBP (PerkinElmer TRF0109M), 1000 μM ATP, and CDK9/Cyclin T1 (Carna Biosciences 04-110). The kinase reaction was carried out for 1 hour before addition of stopping buffer to a final of 20 mM EDTA and 0.5 nM of LANCE Ultra Europium anti-phospho-MBP antibody (PerkinElmer TRF0201M) in LANCE detection buffer. The reaction was incubated for 1 hour and the signal was read in Envision in TR-FRET mode (excitation at 320 nm and emission at 615/665 nm).

H929 cells = test: Cell viability assay (Cell TiterGlo); type: cell-based; conditions: Cell TiterGlo luminescence
Procedure: The cell viability assay was performed using H929 cells. Cells were seeded in 96-well plates at 10,000 cells/well and, after overnight incubation, treated with compounds in a dose response of 3-fold dilutions from 10 μM to 0.005 μM ([…], 0.1% final DMSO concentration). After 24 hours at 37° C., cell viability was measured using Cell TiterGlo reagent (Promega) with a luminescence reader.

[1] = Homo sapiens, NCI-H929, 24 hours at 37° C.

Sequence of CDK9/Cyclin T1 (P50750 whole entry): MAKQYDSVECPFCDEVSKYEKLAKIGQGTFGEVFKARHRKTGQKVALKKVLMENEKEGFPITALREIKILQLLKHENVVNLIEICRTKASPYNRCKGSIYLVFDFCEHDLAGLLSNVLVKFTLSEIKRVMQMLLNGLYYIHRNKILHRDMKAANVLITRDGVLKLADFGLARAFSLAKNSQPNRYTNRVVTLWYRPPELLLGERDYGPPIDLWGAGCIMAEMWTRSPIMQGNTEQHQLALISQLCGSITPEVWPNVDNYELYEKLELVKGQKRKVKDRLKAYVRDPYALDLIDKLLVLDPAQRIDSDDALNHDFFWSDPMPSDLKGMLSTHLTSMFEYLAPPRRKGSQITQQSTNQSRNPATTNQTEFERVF
Sequence of CDK9/Cyclin T1 (O60563 whole entry partner): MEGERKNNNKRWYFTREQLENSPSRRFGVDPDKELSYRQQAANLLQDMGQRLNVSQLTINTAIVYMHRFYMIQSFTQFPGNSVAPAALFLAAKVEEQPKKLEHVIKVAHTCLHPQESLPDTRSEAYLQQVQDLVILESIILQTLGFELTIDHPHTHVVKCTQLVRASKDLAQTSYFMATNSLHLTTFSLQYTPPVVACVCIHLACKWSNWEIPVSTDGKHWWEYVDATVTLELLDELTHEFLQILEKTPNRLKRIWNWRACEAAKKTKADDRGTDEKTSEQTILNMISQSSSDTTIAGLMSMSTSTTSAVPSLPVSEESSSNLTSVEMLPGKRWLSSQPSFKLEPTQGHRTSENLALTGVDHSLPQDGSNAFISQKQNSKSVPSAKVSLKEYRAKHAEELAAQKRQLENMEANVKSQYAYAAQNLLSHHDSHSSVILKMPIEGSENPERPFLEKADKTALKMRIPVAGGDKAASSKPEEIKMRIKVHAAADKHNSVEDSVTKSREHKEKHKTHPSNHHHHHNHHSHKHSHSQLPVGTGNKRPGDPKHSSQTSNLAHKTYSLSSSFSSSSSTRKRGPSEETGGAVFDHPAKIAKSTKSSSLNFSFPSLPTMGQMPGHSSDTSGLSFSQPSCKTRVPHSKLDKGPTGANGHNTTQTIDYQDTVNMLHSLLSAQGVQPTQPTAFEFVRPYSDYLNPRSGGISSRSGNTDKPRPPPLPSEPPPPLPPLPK

Row | SMILES | IC50 (CDK9/Cyclin T1) [nM] | IC50 (H929 cells; [1]) [nM] | IC50 (H929 cells; 24 hours at 37° C.) [nM]
1 | CN1Cc2c(C3=CCN([C@H]4CC[C@H](CC(=O)O)CC4)CC3)[nH]c3ncc(F)c(c23)-c2cc(F)ccc21 [Example 167, {trans-4-[4-(1,10-difluoro-7-methyl-6,7-dihydro-4H-3,4,7-triazadibenzo[cd,f]azulen-5-yl)-3,6-dihydropyridin-1(2H)-yl]cyclohexyl}acetic acid] | 67 | 10 | 
2 | CN(CC(O)CO)C(=O)CN1C2C=C(c3[nH]c4nccc5c4c3CN(C)c3ccc(F)cc3-5)CC1CCC2 (stereo not drawn) [Example 107, N-(2,3-dihydroxypropyl)-2-[3-(10-fluoro-7-methyl-6,7-dihydro-4H-3,4,7-triazadibenzo[cd,f]azulen-5-yl)-9-azabicyclo[3.3.1]non-2-en-9-yl]-N-methylacetamide] | 110 | 110 | 
3 | CN1CCc2c(C3=CCNCC3)[nH]c3nccc(c23)-c2cc(F)ccc21 [Example 127, 8-fluoro-5-methyl-2-(1,2,3,6-tetrahydropyridin-4-yl)-1,3,4,5-tetrahydro-1,5,12-triazabenzo[4,5]cycloocta[1,2,3-cd]indene] | 26 |  | 100
4 | CN1Cc2c(C3=CCN([C@H]4CC[C@H](C(=O)O)CC4)CC3)[nH]c3nccc(c23)-c2cc(F)c(F)cc21 [Example 150, trans-4-[4-(9,10-difluoro-7-methyl-6,7-dihydro-4H-3,4,7-triazadibenzo[cd,f]azulen-5-yl)-3,6-dihydropyridin-1(2H)-yl]cyclohexanecarboxylic acid] | 57 | 28 | 
5 | CN1Cc2c(C3=CCNCC3)[nH]c3nccc(c23)-c2ccccc21 [Example 158, 7-methyl-5-(1,2,3,6-tetrahydropyridin-4-yl)-6,7-dihydro-4H-3,4,7-triazadibenzo[cd,f]azulene] | 96 | 20 | 
6 | CN1Cc2c(C3=CCN(CC(=O)OC(C)(C)C)CC3)[nH]c3ncc(F)c(c23)-c2cc(F)ccc21 [Example 65, tert-butyl[4-(1,10-difluoro-7-methyl-6,7-dihydro-4H-3,4,7-triazadibenzo[cd,f]azulen-5-yl)-3,6-dihydropyridin-1(2H)-yl]acetate] | 100 | 140 | 
7 | CN1Cc2c(C3=CCN(CC(=O)N4CC(CO)C4)CC3)[nH]c3ncc(F)c(c23)-c2cc(F)ccc21 [Example 74, 2-[4-(1,10-difluoro-7-methyl-6,7-dihydro-4H-3,4,7-triazadibenzo[cd,f]azulen-5-yl)-3,6-dihydropyridin-1(2H)-yl]-1-[3-(hydroxymethyl)azetidin-1-yl]ethanone] | 89 | 21 | 
8 | Fc1ccc2c(c1)-c1ccnc3[nH]c(C4=CCNCC4)c(c13)CO2 [Example 14, 10-fluoro-5-(1,2,3,6-tetrahydropyridin-4-yl)-4,6-dihydro-7-oxa-3,4-diazadibenzo[cd,f]azulene] | 20 | 180 | 
9 | CN(C)C(=O)CN1CC=C(c2[nH]c3nccc4c3c2CN(C)c2ccccc2-4)CC1 [Example 162, N,N-dimethyl-2-[4-(7-methyl-6,7-dihydro-4H-3,4,7-triazadibenzo[cd,f]azulen-5-yl)-3,6-dihydropyridin-1(2H)-yl]acetamide] | 115 | 21 | 
10 | CN1Cc2c(C3=C[C@H]4CC[C@@H](C3)N4CC(=O)N(C)C3CC(O)C3)[nH]c3nccc(c23)-c2cc(F)ccc21 (stereo partly drawn) [Example 98, 2-[(1R,5S)-3-(10-fluoro-7-methyl-6,7-dihydro-4H-3,4,7-triazadibenzo[cd,f]azulen-5-yl)-8-azabicyclo[3.2.1]oct-2-en-8-yl]-N-(3-hydroxycyclobutyl)-N-methylacetamide] | 73 | 150 | 
11 | CN1Cc2c(C3=C[C@H]4CC[C@@H](C3)N4)[nH]c3nccc(c23)-c2cc(F)ccc21 [Example 62, 5-[(1R,5S)-8-azabicyclo[3.2.1]oct-2-en-3-yl]-10-fluoro-7-methyl-6,7-dihydro-4H-3,4,7-triazadibenzo[cd,f]azulene] | 46 | 150 | 
12 | CN1Cc2c(C3=CC4CCCC(C3)N4CC(=O)N3CCC[C@H]3CO)[nH]c3nccc(c23)-c2cc(F)ccc21 (stereo partly drawn) [Example 104, 2-[3-(10-fluoro-7-methyl-6,7-dihydro-4H-3,4,7-triazadibenzo[cd,f]azulen-5-yl)-9-azabicyclo[3.3.1]non-2-en-9-yl]-1-[(2S)-2-(hydroxymethyl)pyrrolidin-1-yl]ethanone] | 57 | 65 | 

The next lines start with results.

Row | IC50 (CDK9/Cyclin T1) [nM] | IC50 (H929 cells; [1]) [nM] | SMILES | IC50 (H929 cells; 24 hours at 37° C.) [nM]
13 | 400 | 1200 | CCOC(=O)C1CC=C(c2[nH]c3nccc4c3c2CN(C)c2ccc(F)cc2-4)CC1 (stereo not drawn) [Example 61, ethyl 4-(10-fluoro-7-methyl-6,7-dihydro-4H-3,4,7-triazadibenzo[cd,f]azulen-5-yl)cyclohex-3-ene-1-carboxylate] | 
14 | 40 | 27 | CN1Cc2c(C3=CCN(CC(=O)N(C)C4CC(O)C4)CC3)[nH]c3nccc(c23)-c2cc(F)ccc21 (stereo not drawn) [Example 24, 2-[4-(10-fluoro-7-methyl-6,7-dihydro-4H-3,4,7-triazadibenzo[cd,f]azulen-5-yl)-3,6-dihydropyridin-1(2H)-yl]-N-(3-hydroxycyclobutyl)-N-methylacetamide] | 
15 | 650 | 2700 | CN1Cc2c(C3=CCN(S(C)(=O)=O)CC3(C)C)[nH]c3nccc(c23)-c2cc(F)ccc21 [Example 113, 5-[3,3-dimethyl-1-(methylsulfonyl)-1,2,3,6-tetrahydropyridin-4-yl]-10-fluoro-7-methyl-6,7-dihydro-4H-3,4,7-triazadibenzo[cd,f]azulene] | 
16 | 88 | 190 | CN1Cc2c(C3=CC4CNCC4C3)[nH]c3nccc(c23)-c2cc(F)ccc21 (stereo not drawn) [Example 59, 10-fluoro-5-(1,2,3,3a,4,6a-hexahydrocyclopenta[c]pyrrol-5-yl)-7-methyl-6,7-dihydro-4H-3,4,7-triazadibenzo[cd,f]azulene] | 
17 | 93 | 150 | CN1Cc2c(C3CCN(CC(=O)N4CCC[C@H]4CO)CC3)[nH]c3nccc(c23)-c2cc(F)ccc21 [Example 26, 2-[4-(10-fluoro-7-methyl-6,7-dihydro-4H-3,4,7-triazadibenzo[cd, f]azulen-5-yl)piperidin-1-yl]-1-[(2S)-2-(hydroxymethyl)pyrrolidin-1-yl]ethanone] | 
18 | 46 | 94 | CC(C)[C@@H](NC1CC=C(c2[nH]c3nccc4c3c2CN(C)c2ccc(F)cc2-4)CC1)C(=O)O (stereo partly drawn) [Example 29, N-[4-(10-fluoro-7-methyl-6,7-dihydro-4H-3,4,7-triazadibenzo[cd,f]azulen-5-yl)cyclohex-3-en-1-yl]-D-valine] | 
19 | 53 | 25 | CN1Cc2c(C3=CCN(CC(=O)N(C)C4CC(O)C4)CC3)[nH]c3nccc(c23)-c2cc(F)c(F)cc21 (stereo not drawn) [Example 148, 2-[4-(9,10-difluoro-7-methyl-6,7-dihydro-4H-3,4,7-triazadibenzo[cd,f]azulen-5-yl)-3,6-dihydropyridin-1(2H)-yl]-N-(3-hydroxycyclobutyl)-N-methylacetamide] | 
20 | 62 | 94 | CN1Cc2c(C3=CCN(CC(=O)N4CCC[C@@H]4CO)CC3)[nH]c3nccc(c23)-c2cc(F)ccc21 [Example 64, 2-[4-(10-fluoro-7-methyl-6,7-dihydro-4H-3,4,7-triazadibenzo[cd,f]azulen-5-yl)-3,6-dihydropyridin-1(2H)-yl]-1-[(2R)-2-(hydroxymethyl)pyrrolidin-1-yl]ethanone] | 
21 | 80 | 95 | COCCS(=O)(=O)N1CC2C=C(c3[nH]c4nccc5c4c3CN(C)c3ccc(F)cc3-5)CC2C1 (stereo not drawn) [Example 69, 10-fluoro-5-{2-[(2-methoxyethyl)sulfonyl]-1,2,3,3a,4,6a-hexahydrocyclopenta[c]pyrrol-5-yl}-7-methyl-6,7-dihydro-4H-3,4,7-triazadibenzo[cd,f]azulene] | 
22 | 1300 | 2400 | CN(CC(O)CO)C(=O)CN1CC=C(c2[nH]c3nccc4c3c2CN(C)c2ccc(F)cc2-4)C(C)(C)C1 (stereo not drawn) [Example 119, N-(2,3-dihydroxypropyl)-2-[4-(10-fluoro-7-methyl-6,7-dihydro-4H-3,4,7-triazadibenzo[cd,f]azulen-5-yl)-3,3-dimethyl-3,6-dihydropyridin-1(2H)-yl]-N-methylacetamide] | 
23 | 57 | 120 | COC(=O)C(C)=C1CCC(N2CC=C(c3[nH]c4nccc5c4c3CN(C)c3ccc(F)cc3-5)CC2)CC1 (stereo not drawn) [Example 174, methyl 2-{4-[4-(10-fluoro-7-methyl-6,7-dihydro-4H-3,4,7-triazadibenzo[cd,f]azulen-5-yl)-3,6-dihydropyridin-1(2H)-yl]cyclohexylidene}propanoate] | 
24 | 62 | 30 | CN1Cc2c(C3=CC4CN(S(C)(=O)=O)CC4C3)[nH]c3nccc(c23)-c2cc(F)ccc21 (stereo not drawn) [Example 78, 10-fluoro-7-methyl-5-[2-(methylsulfonyl)-1,2,3,3a,4,6a-hexahydrocyclopenta[c]pyrrol-5-yl]-6,7-dihydro-4H-3,4,7-triazadibenzo[cd,f]azulene] | 
